Data taken from paper PMC7413254 (Nature Communications, 2020).
Like-named read-outs stand apart in the source and are kept apart here.

Experiments:
PfCRT^Ecu1110 [1] = molecular target: T1, PfCRT^Ecu1110 (Plasmodium falciparum, UniProt Q9N623, A220S/I356L/K76T/N326D); test: [3H]CQ uptake into Xenopus oocytes, cis-inhibition by unlabelled solute; assay type: cell-based
Procedure, shortened: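 ND96, pH 5.5, 1.5 h, 27.5 °C; uptake direction acidic outside → oocyte cytosol, mimicking efflux from digestive vacuole. Ice-cold wash stop, 10% SDS lysis, scintillation counting. Ten oocytes/treatment, ≥4 independent experiments.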

PfCRT^3D7 = PfCRT^3D7 (Plasmodium falciparum, UniProt Q8IBZ9); test: cell-based; assay type: cell-based
Sequence of PfCRT^3D7 (Q8IBZ9 59-398): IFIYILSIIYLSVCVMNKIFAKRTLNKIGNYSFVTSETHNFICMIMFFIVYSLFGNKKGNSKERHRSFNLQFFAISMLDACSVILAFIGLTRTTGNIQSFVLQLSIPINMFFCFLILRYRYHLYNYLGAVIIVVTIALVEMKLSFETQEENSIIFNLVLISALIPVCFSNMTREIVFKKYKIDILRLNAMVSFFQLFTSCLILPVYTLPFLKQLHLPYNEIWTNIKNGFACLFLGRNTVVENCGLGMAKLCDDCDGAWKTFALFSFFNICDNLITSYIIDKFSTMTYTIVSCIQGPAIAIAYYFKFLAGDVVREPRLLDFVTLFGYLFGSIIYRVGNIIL
Procedure, shortened: (§1)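 Oocytes (ten per treatment, ≥4 independent frogs/days) were preloaded by injecting VF-6 in 25 nL ND96 at pH 5.0, 5.5, 6.0 or 7.0, or Na^+-free choline buffer, then uptake run 1.5 h, 27.5 °C, ND96 pH 5.5 by default. Internal concentrations assumed ~400 nL oocyte volume.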

PfNT1 = molecular target: T2, PfNT1 (Plasmodium falciparum, UniProt Q8IDM6); test: cell-based; assay type: cell-based; details: for activity at 5000 µM: total [3H]CQ transport
T2 construct: expressed in transfected cells; host or cells: Xenopus laevis oocytes (stage V-VI), cRNA-injected
T2 sequence (Q8IDM6 whole entry): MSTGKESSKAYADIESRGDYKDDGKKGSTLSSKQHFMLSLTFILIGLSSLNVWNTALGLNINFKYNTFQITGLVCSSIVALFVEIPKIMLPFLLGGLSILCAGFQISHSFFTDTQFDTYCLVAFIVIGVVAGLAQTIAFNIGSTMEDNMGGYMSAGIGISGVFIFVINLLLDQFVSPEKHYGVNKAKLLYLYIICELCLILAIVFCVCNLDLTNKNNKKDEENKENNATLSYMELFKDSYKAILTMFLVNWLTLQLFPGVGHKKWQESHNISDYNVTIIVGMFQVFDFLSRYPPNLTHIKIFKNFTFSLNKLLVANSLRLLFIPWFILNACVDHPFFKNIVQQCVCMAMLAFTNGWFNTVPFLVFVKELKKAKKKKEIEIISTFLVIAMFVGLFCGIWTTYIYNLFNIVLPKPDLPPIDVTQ
Procedure, shortened: as §1

PfCRT^Dd2 = PfCRT^Dd2 (Plasmodium falciparum, UniProt Q9N623, A220S/I356T/K76T/M74I/N326S/N75E/Q271E/R371I); test: cell-based; assay type: cell-based; details: […]; for activity at 45000 µM: [test solute]i = 45 mM (30 mM for some solutes due to solubility)
Sequence of PfCRT^Dd2 (Q9N623 whole entry A220S/I356T/K76T/M74I/N326S/N75E/Q271E/R371I): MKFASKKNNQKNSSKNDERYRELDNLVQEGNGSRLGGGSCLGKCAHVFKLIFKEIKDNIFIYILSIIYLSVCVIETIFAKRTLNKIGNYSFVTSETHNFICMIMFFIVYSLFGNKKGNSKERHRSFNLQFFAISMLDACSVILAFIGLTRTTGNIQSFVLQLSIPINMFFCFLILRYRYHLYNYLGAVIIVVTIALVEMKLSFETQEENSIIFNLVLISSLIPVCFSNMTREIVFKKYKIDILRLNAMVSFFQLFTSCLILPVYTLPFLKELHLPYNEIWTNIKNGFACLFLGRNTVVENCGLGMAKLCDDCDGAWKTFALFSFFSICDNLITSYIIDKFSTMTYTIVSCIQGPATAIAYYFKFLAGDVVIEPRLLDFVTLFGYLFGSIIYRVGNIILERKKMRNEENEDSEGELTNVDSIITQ
Procedure, shortened: as §1

PfCRT^Ecu1110 [2] = molecular target: T1, PfCRT^Ecu1110; test: cell-based; assay type: cell-based; details: […]
Procedure, shortened: as §1

PfCRT = test: Potential co-substrates tested for influx of VF-6 via PfCRT into the oocyte; assay type: cell-based, Plasmodium falciparum; set-up: key: X: Compounds that have been tested as potential co-substrates but are not required for influx of VF-6 via PfCRT into the oocyte
non-expressing oocytes = assay type: cell-based, Xenopus laevis; details: total [3H]CQ transport; for Uptake of [3H]CQ (% non-expressing oocyte control), trans-stimulation: non-expressing oocytes, normalised to the oocyte type control; for Uptake of [3H]CQ (% PfCRTDd2 control), trans-stimulation, non-expressing oocytes: mean ± SEM, SEM
Procedure, shortened: as §1

[3] = read-out: [3H]CQ transport (% PfCRTEcu1110 control), cis-inhibition, PfCRTEcu1110, SEM

T1 sequence (Q9N623 whole entry A220S/I356L/K76T/N326D): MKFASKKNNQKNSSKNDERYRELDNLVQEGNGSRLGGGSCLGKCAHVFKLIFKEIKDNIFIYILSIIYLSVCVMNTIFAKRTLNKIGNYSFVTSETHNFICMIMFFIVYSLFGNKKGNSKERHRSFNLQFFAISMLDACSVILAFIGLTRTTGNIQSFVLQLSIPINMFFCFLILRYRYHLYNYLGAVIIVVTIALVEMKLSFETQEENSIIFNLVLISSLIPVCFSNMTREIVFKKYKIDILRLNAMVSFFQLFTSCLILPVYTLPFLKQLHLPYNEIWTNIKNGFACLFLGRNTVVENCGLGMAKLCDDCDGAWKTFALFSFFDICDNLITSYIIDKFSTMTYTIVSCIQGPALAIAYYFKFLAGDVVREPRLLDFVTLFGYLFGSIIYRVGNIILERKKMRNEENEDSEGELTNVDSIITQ

Structure (SMILES): N=C(N)NCCC[C@H](N)C(=O)O [L-arginine]
- inhibition at 2000 µM (PfCRT^Ecu1110 [1]; read-out: Uptake of [3H]CQ (% PfCRTEcu1110 control), cis-inhibition): 101 ± 3.6%
- inhibition at 500 µM (PfCRT^Ecu1110 [1]; [3]): 30 ± 0.6%
- inhibition at 1000 µM (PfCRT^Ecu1110 [1]; [3]): 29 ± 0.4%
- inhibition at 2000 µM (PfCRT^Ecu1110 [1]; [3]): 30 ± 0.5%
- activity at 5000 µM (PfCRT^3D7; PfCRT3D7 oocytes, [test solute]i = 5 mM, total [3H]CQ transport, normalised to the oocyte type control, read-out: Uptake of [3H]CQ (% PfCRT3D7 control), trans-stimulation): 97 ± 2.2%
- [3H]CQ transport (% PfCRT3D7 control), trans-stimulation, PfCRT3D7 (PfCRT^3D7; SEM): 0.3 ± 0.02 % PfCRT3D7 control
- activity at 5000 µM (PfCRT^3D7; [test solute]i = 5 mM (intracellular), PfCRT3D7 oocytes, normalised to oocyte type control, read-out: PfCRT-mediated [3H]CQ transport, trans-stimulation (% PfCRT3D7 control)): 96 ± 3.7%
- activity at 45000 µM (PfCRT^3D7; SEM, read-out: Uptake of [3H]CQ (% PfCRTDd2 control), trans-stimulation, PfCRT3D7): 3.3 ± 0.02%
- activity at 45000 µM (PfCRT^3D7; read-out: PfCRT-mediated [3H]CQ transport, trans-stimulation (% PfCRT3D7 control)): 96 ± 3.1%
- activity at 45000 µM (PfCRT^3D7; read-out: Uptake of [3H]CQ (% PfCRT3D7 control), trans-stimulation): 98 ± 4.4%
- activity at 5000 µM (PfCRT^3D7; total [3H]CQ transport, [test solute]i = 5 mM (intracellular), mean ± SEM, SEM, read-out: Uptake of [3H]CQ (% PfCRTDd2 control), trans-stimulation, PfCRT3D7): 3.3 ± 0.06%
- activity at 5000 µM (PfNT1; PfNT1 oocytes, [test solute]i = 5 mM, normalised to the oocyte type control, read-out: Uptake of [3H]CQ (% PfNT1 control), trans-stimulation): 98 ± 3.8%
- activity at 45000 µM (PfNT1; SEM, read-out: Uptake of [3H]CQ (% PfCRTDd2 control), trans-stimulation, PfNT1): 3.1 ± 0.07%
- activity at 45000 µM (PfNT1; read-out: Uptake of [3H]CQ (% PfNT1 control), trans-stimulation): 98 ± 3.2%
- activity at 5000 µM (PfNT1; [test solute]i = 5 mM (intracellular), mean ± SEM, SEM, read-out: Uptake of [3H]CQ (% PfCRTDd2 control), trans-stimulation, PfNT1): 3.3 ± 0.03%
- activity at 5000 µM (PfCRT^Dd2; pH 5.5, read-out: PfCRT-mediated [3H]CQ transport, trans-stimulation (% PfCRTDd2 control), [test solute]i = 5 mM (intracellular), PfCRTDd2 oocytes, normalised to oocyte type control): 98 ± 2.1%
- activity at 5000 µM (PfCRT^Dd2; pH 5.5, read-out: Uptake of [3H]CQ (% PfCRTDd2 control), trans-stimulation, PfCRTDd2, total [3H]CQ transport, [test solute]i = 5 mM (intracellular), mean ± SEM, SEM): 100 ± 3.5%
- activity at 5000 µM (PfCRT^Dd2; pH 5.5, read-out: Uptake of [3H]CQ (% PfCRTDd2 control), trans-stimulation, PfCRTDd2 oocytes, [test solute]i = 5 mM, total [3H]CQ transport, normalised to the oocyte type control): 100 ± 3.5%
- activity at 45000 µM (PfCRT^Dd2; pH 5.5, read-out: Uptake of [3H]CQ (% PfCRTDd2 control), trans-stimulation, PfCRTDd2 oocytes, total [3H]CQ transport, normalised to the oocyte type control): 97 ± 4.2%
- activity at 5000 µM (PfCRT^Dd2; pH 5.5, read-out: [3H]CQ transport (% PfCRTDd2 control), trans-stimulation, PfCRTDd2, trans-stimulation, [test solute]i = 5 mM (injected), PfCRT-mediated component (background subtracted), mean ± SEM, SEM): 98 ± 2.1%
- activity at 45000 µM (PfCRT^Dd2; pH 5.5, read-out: [3H]CQ transport (% PfCRTDd2 control), trans-stimulation, PfCRTDd2, trans-stimulation, PfCRT-mediated component (background subtracted), mean ± SEM, SEM): 95 ± 2.5%
- activity at 5000 µM (PfCRT^Ecu1110 [2]; pH 5.5, read-out: PfCRT-mediated [3H]CQ transport, trans-stimulation (% PfCRTEcu1110 control), [test solute]i = 5 mM (intracellular), PfCRTEcu1110 oocytes, normalised to oocyte type control): 98 ± 4.1%
- activity at 5000 µM (PfCRT^Ecu1110 [2]; pH 5.5, read-out: Uptake of [3H]CQ (% PfCRTEcu1110 control), trans-stimulation, PfCRTEcu1110 oocytes, [test solute]i = 5 mM, total [3H]CQ transport, normalised to the oocyte type control): 100 ± 3.7%
- activity at 45000 µM (PfCRT^Ecu1110 [2]; pH 5.5, read-out: Uptake of [3H]CQ (% PfCRTEcu1110 control), trans-stimulation, PfCRTEcu1110 oocytes, [test solute]i = 45 mM (30 mM for some solutes due to solubility), total [3H]CQ transport, normalised to the oocyte type control): 99 ± 2.5%
- activity at 5000 µM (PfCRT^Ecu1110 [2]; read-out: Uptake of [3H]CQ (% PfCRTDd2 control), trans-stimulation, PfCRTEcu1110, total [3H]CQ transport, [test solute]i = 5 mM (intracellular), mean ± SEM, SEM): 36 ± 2.1%
- activity at 45000 µM (PfCRT^Ecu1110 [2]; read-out: Uptake of [3H]CQ (% PfCRTDd2 control), trans-stimulation, PfCRTEcu1110, total [3H]CQ transport, [test solute]i = 45 mM (intracellular; 30 mM for some solutes due to solubility), mean ± SEM, SEM): 35 ± 2.2%
- Tested as potential co-substrate but not required for influx of VF-6 via PfCRT into the oocyte (PfCRT): X
- Uptake of [3H]CQ (% non-expressing oocyte control), trans-stimulation (non-expressing oocytes; [test solute]i = 5 mM): 97 ± 4.1 % non-expressing oocyte control
- Uptake of [3H]CQ (% non-expressing oocyte control), trans-stimulation (non-expressing oocytes; [test solute]i = 45 mM (30 mM for some solutes due to solubility)): 98 ± 3.9 % non-expressing oocyte control
- Uptake of [3H]CQ (% PfCRTDd2 control), trans-stimulation, non-expressing oocytes (non-expressing oocytes; [test solute]i = 5 mM (intracellular)): 2.7 ± 0.07 % PfCRTDd2 control
- Uptake of [3H]CQ (% PfCRTDd2 control), trans-stimulation, non-expressing oocytes (non-expressing oocytes; [test solute]i = 45 mM (intracellular; 30 mM for some solutes due to solubility)): 3.0 ± 0.01 % PfCRTDd2 control
